Experimental data from US6482921B1, “Uridyl peptide antibiotic (UPA) derivatives, their synthesis and use” (Essential Therapeutics, Inc., priority 1999, dated 2002).
Converted amounts (≈) assume the structure as drawn.

Experiments:
Type in all cases: cell-based
[1] = test system: Pseudomonas aeruginosa PAM 1020; experiment: MIC broth microdilution, P. aeruginosa PAM 1020 (wild type); settings: P. aeruginosa PAM 1020
[2] = test system: Pseudomonas aeruginosa PAM 1154; experiment: MIC broth microdilution, P. aeruginosa PAM 1154 (OprM::Hg); settings: P. aeruginosa PAM 1154 OprM::Hg
[3] = test system: Pseudomonas aeruginosa PAM 1135; experiment: MIC broth microdilution, P. aeruginosa PAM 1135 (high level UPA resistance); settings: P. aeruginosa PAM 1135 UPA1^r
[4] = test system: Pseudomonas aeruginosa PAM 1323; experiment: MIC broth microdilution, P. aeruginosa PAM 1323 (medium level UPA resistance)
Escherichia Coli MC 4100 = experiment: MIC broth microdilution, E. coli MC 4100 (wild type); settings: E. coli MC 4100
[5] = test system: Escherichia Coli MC 4100 AcrAB; experiment: MIC broth microdilution, E. coli MC 4100 AcrAB (ΔAcrAB); settings: E. coli AcrAB
[6] = test system: Escherichia Coli MC 4100 AcrAB UPA3r; experiment: MIC broth microdilution, E. coli MC 4100 AcrAB UPA3r (ΔAcrAB, UPA resistant); settings: E. coli AcrAB UPA3^r
[7] = test system: Staphylococcus aureus ATCC 29213; experiment: MIC broth microdilution, S. aureus ATCC 29213 (wild type); settings: S. aureus ATCC 29213
[8] = test system: Staphylococcus aureus 8325-4; experiment: MIC broth microdilution, S. aureus 8325-4 (wild type); settings: S. aureus 8325-4
[9] = test system: Pasteurella multocida pm002; experiment: MIC broth microdilution, P. multocida pm002 (wild type)

Row | Structure (SMILES) | MIC (μg/ml) Broth microdilution [1] | MIC (μg/ml) Broth microdilution [2] | MIC (μg/ml) Broth microdilution [3] | MIC (μg/ml) Broth microdilution [4] | MIC (μg/ml) Broth microdilution (Escherichia Coli MC 4100) | MIC (μg/ml) Broth microdilution [5] | MIC (μg/ml) Broth microdilution [6] | MIC (μg/ml) Broth microdilution [7] | MIC (μg/ml) Broth microdilution [8] | MIC (μg/ml) Broth microdilution [9]
1 | CC(N)C(=O)N(C)C(C)C(NC(=O)C(Cc1ccccc1)NC(=O)NC(Cc1cccs1)C(=O)O)C(=O)NCC1CC(O)C(n2ccc(=O)[nH]c2=O)O1 [Compound 125, 1-[5′-[(2S,3S)-N^3-L-Alanyl-N^2-[N-[[(1S)-1-carboxy-2-(2-thienyl)ethyl]carbamoyl]-L-phenylalanyl]-N^3-methyl-2,3-diaminobutyramidol-3′,5′-dideoxy-α-L-arabinofuranosyl]uracil] | 64 µg/mL (≈ 84.6 µM) | 8 µg/mL (≈ 10.6 µM) | >512 µg/mL | >512 µg/mL | >512 µg/mL | 8 µg/mL (≈ 10.6 µM) | 64 µg/mL (≈ 84.6 µM) | >512 µg/mL | >512 µg/mL | >512 µg/mL
2 | CC(N)C(=O)N(C)C(C)C(NC(=O)C(Cc1ccc([N+](=O)[O-])cc1)NC(=O)NC(Cc1ccc(O)cc1)C(=O)O)C(=O)NCC1CC(O)C(n2ccc(=O)[nH]c2=O)O1 [Compound 126, 1-[5′-[(2S,3S)-N^3-L-Alanyl-N^2-[N-[[(1S)-1-carboxy-4-hydroxyphenethyl]carbamoyl]-L-4-nitrophenylalanine-N^3-methyl-2,3-diaminobutyramido]-3′,5′-dideoxy-α-L-arabinofuranosyl]uracil] | 128 µg/mL (≈ 158 µM) | 16 µg/mL (≈ 19.7 µM) | >512 µg/mL | >512 µg/mL | 16 µg/mL (≈ 19.7 µM) | <1 µg/mL | 4 µg/mL (≈ 4.93 µM) | 512 µg/mL (≈ 631 µM) | 256 µg/mL (≈ 315 µM) | 512 µg/mL (≈ 631 µM)
3 | CNC(C)C(NC(=O)C(Cc1ccc(F)cc1)NC(=O)NC(Cc1ccc(O)cc1)C(=O)O)C(=O)NCC1CC(O)C(n2ccc(=O)[nH]c2=O)O1 [Compound 127, 1-[5′-[(2S,3S)-N^2-[N-[[(1S)-1-carboxy-4-hydroxyphenethyl)carbamoyl]-L-4-fluorophenylalanyl]-N^3-methyl-2,3-diaminobutyramidol-3′,5′-dideoxy-α-L-arabinofuranosyl]uracil] | >512 µg/mL | 512 µg/mL (≈ 717 µM) | >512 µg/mL | >512 µg/mL | >512 µg/mL | 4 µg/mL (≈ 5.6 µM) | 32 µg/mL (≈ 44.8 µM) | >512 µg/mL | >512 µg/mL | >512 µg/mL
4 | CC(C(NC(=O)C(Cc1ccc(F)cc1)NC(=O)NC(Cc1ccc(O)cc1)C(=O)O)C(=O)NCC1CC(O)C(n2ccc(=O)[nH]c2=O)O1)N(C)C(=O)CN [Compound 129, 1-[5′-[(2S,3S)-N^2-[N-[[(1S)-1-Carboxy-4-hydroxyphenethyl)-L-4-fluorophenylalanyl]-N^3-glycyl-N^3-methyl-2,3-diaminobutyramido]-3′,5′-dideoxy-α-L-arabinofuranosyl]uracil] | 32 µg/mL (≈ 41.5 µM) | 8 µg/mL (≈ 10.4 µM) | >512 µg/mL | >512 µg/mL | 8 µg/mL (≈ 10.4 µM) | <1 µg/mL | 2 µg/mL (≈ 2.59 µM) | >512 µg/mL | 512 µg/mL (≈ 664 µM) | 256 µg/mL (≈ 332 µM)
5 | CC(C(NC(=O)C(Cc1ccc(F)cc1)NC(=O)NC(Cc1ccc(O)cc1)C(=O)O)C(=O)NCC1CC(O)C(n2ccc(=O)[nH]c2=O)O1)N(C)C(=O)c1cccc(N)c1 [Compound 131, 1-[5′-[(2S,3S)-N^3-3-Aminobenzoyl-N^2-[N-[[(1S)-1-carboxy-4-hydroxyphenethyl]carbamoyl]-L-4-fluorophenylalanyl]-N^3-methyl-2,3-diaminobutyramido]-3′,5′-dideoxy-α-Larabinofuranosyl]uracil] | 512 µg/mL (≈ 615 µM) | 512 µg/mL (≈ 615 µM) | >512 µg/mL | >512 µg/mL | >512 µg/mL | 16 µg/mL (≈ 19.2 µM) | 512 µg/mL (≈ 615 µM) | 512 µg/mL (≈ 615 µM) | >512 µg/mL | >512 µg/mL
6 | CC(N)C(=O)N(C)C(C)C(NC(=O)C(Cc1cscn1)NC(=O)NC(Cc1ccc(O)cc1)C(=O)O)C(=O)NCC1CC(O)C(n2ccc(=O)[nH]c2=O)O1 [Compound 132, 1-[5′-[(2S,3S)-N^3-L-Alanyl-N^2-[N-[[(1S)-1-carboxy-4-hydroxyphenethyl]carbamoyl]-L-thiazolylalanyl]-N^3-methyl-2,3-diaminobutyramido]-3′,5′-dideoxy-α-L-arabinofuranosyl]uracil] | 128 µg/mL (≈ 165 µM) | 32 µg/mL (≈ 41.4 µM) | >512 µg/mL | >512 µg/mL | 256 µg/mL (≈ 331 µM) | 8 µg/mL (≈ 10.3 µM) | 32 µg/mL (≈ 41.4 µM) | >512 µg/mL | >512 µg/mL | >512 µg/mL
7 | CC(N)C(=O)N(C)C(C)C(NC(=O)C(CCc1ccccc1)NC(=O)NC(Cc1ccc(O)cc1)C(=O)O)C(=O)NCC1CC(O)C(n2ccc(=O)[nH]c2=O)O1 [Compound 137, 1-[5′-[(2S,3S)-N^3-L-Alanyl-N^2-[N-[[(1S)-1-carboxy-4-hydroxyphenethyl]carbamoyl]-L-homophenylalanyl]-N^3-methyl-2,3-diaminobutyramido]-3′,5′-dideoxy-α-L-arabinofuranosyl]uracil] | 64 µg/mL (≈ 82 µM) | 128 µg/mL (≈ 164 µM) | >512 µg/mL | >512 µg/mL | 512 µg/mL (≈ 656 µM) | 16 µg/mL (≈ 20.5 µM) | 256 µg/mL (≈ 328 µM) | >512 µg/mL | >512 µg/mL | >512 µg/mL
8 | CC(N)C(=O)N(C)C(C)C(NC(=O)C(CCc1ccccc1)NC(=O)NC(Cc1c[nH]c2ccccc12)C(=O)O)C(=O)NCC1CC(O)C(n2ccc(=O)[nH]c2=O)O1 [Compound 138, 1-[5′-[(2S,3S)-N^3-L-Alanyl-N^2-[N-[[(1S)-1-carboxy-2-indol-3-ylethyl]carbamoyl]-L-homophenylalanyl]-N^3-methyl-2,3-diaminobutyramido]-3′,5′-dideoxy-α-L-arabinofuranosyl]uracil] | 32 µg/mL (≈ 39.8 µM) | 8 µg/mL (≈ 9.95 µM) | >512 µg/mL | >512 µg/mL | 512 µg/mL (≈ 637 µM) | 2 µg/mL (≈ 2.49 µM) | 256 µg/mL (≈ 318 µM) | >512 µg/mL | >512 µg/mL | >512 µg/mL
9 | C[C@H](N)C(=O)N(C)[C@@H](C)[C@H](NC(=O)[C@H](Cc1ccccc1F)NC(=O)N[C@@H](Cc1c[nH]c2ccccc12)C(=O)O)C(=O)NC[C@H]1C[C@@H](O)[C@H](n2ccc(=O)[nH]c2=O)O1 [Compound 139, 1-[5′-[(2S,3S)-N^3-L-Alanyl-N^2-[N-[[(1S)-1-carboxy-2-indol-3-ylethyl]carbamoyl]-L-2-fluorophenylalanyl]-N^3-methyl-2,3-diaminobutyramido]-3′,5′-dideoxy-α-L-arabinofuranosyl]uracil] | 64 µg/mL (≈ 79.2 µM) | 8 µg/mL (≈ 9.9 µM) | >512 µg/mL | 512 µg/mL (≈ 634 µM) | >512 µg/mL | 2 µg/mL (≈ 2.48 µM) | 64 µg/mL (≈ 79.2 µM) | 256 µg/mL (≈ 317 µM) | 256 µg/mL (≈ 317 µM) | 256 µg/mL (≈ 317 µM)
10 | C[C@H](N)C(=O)N(C)[C@@H](C)[C@H](NC(=O)[C@H](Cc1ccccc1F)NC(=O)N[C@@H](Cc1ccc(O)cc1)C(=O)O)C(=O)NC[C@H]1C[C@@H](O)[C@H](n2ccc(=O)[nH]c2=O)O1 [Compound 140, 1-[5′-[(2S,3S)-N^3-L-Alanyl-N^2-[N-[[(1S)-1-carboxy-4-hydroxyphenethyl]carbamoyl]-L-2-fluorophenylalanyl]-N^3-methyl-2,3-diaminobutyramido]-3′,5′-dideoxy-α-L-arabinofuranosyl]uracil] | 64 µg/mL (≈ 81.5 µM) | 4 µg/mL (≈ 5.1 µM) | >512 µg/mL | 512 µg/mL (≈ 652 µM) | 64 µg/mL (≈ 81.5 µM) | <1 µg/mL | 8 µg/mL (≈ 10.2 µM) | 512 µg/mL (≈ 652 µM) | 512 µg/mL (≈ 652 µM) | >512 µg/mL
